Laboratory results: patent US20040147495A1, “Sapogenin derivatives, their synthesis and use, and methods based upon their use” (priority 2001, published 2004)

Columns and labels:
[1] = system: β2 adrenoceptors; assay: CHO-β2/m3 co-transfected cell line: β2 adrenoceptor density ([3H]CGP); assay type: cell-based, Chinese hamster; details: day 5
Method: (§1) Chinese hamster ovary (CHO) cells expressing high levels of muscarinic receptor (˜2.2 pmol mg protein^−1) were plated on a 24 well plate, 1 day before the start of the experiment. The culture medium was replaced with medium containing vehicle (DMSO) or the compounds.
(§2) The cells were incubated for 2/3 days, then after a medium change, cells were incubated for a further 2/3 days. The cells were incubated with a saturating concentration of labelled N-methyl-scopolamine, ([^3H]NMS). Cells were washed with ice cold phosphate-buffered saline (PBS) (3×) and bound [^3H]NMS determined by solubilising receptors with RIPA buffer followed by liquid scintillation counting.
(§3) The results shown in FIG. 5 used a CHO cell line co-transfected to express both β2 adrenoceptors and m3 muscarinic receptors. To measure the β2 and m3 receptor density, both [^3H]NMS and [^3H]CGP were used.

[2] = system: m3 muscarinic receptors; assay: CHO-β2/m3 co-transfected cell line: m3 receptor density ([3H]NMS); assay type: cell-based, Chinese hamster; details: day 5
Method: as §1, §2, §3

Compound: CC(=O)OC1CCC2(C)C(CCC3C2CCC2(C)C3CC3OC4(CCC(C)CO4)C(C)C32)C1 (centres unmarked) [epismilagenin acetate]
- decrease in β2 adrenoceptors [1]: significantly prevented
- density of m3 receptors [2]: did not significantly alter the density of m3 receptors
